{"source": "PubChem BioAssay AID2060488", "about": "(Molecular Pharmacology Branch, DTP, NCI, 2025);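 further: spheroids exposed to the agents for seven days before readout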;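 on viability, T/C: percent viability relative to DMSO vehicle control wells taken as 100%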", "tested_on": "966289-007-R4-J1-PDC complex spheroid viability", "experiment": "Anticancer human tumor 966289-007-R4-J1-PDC patient-derived pancreatic adenocarcinoma cell line growth inhibition [GQUAD]", "conditions": "for IC50: curve of first compound; for viability, T/C: stronger effect = lower value", "summary_of_the_method": "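Viability of tumor cells grown as complex spheroids with endothelial and stromal cells, exposed to drug combinations. Top concentration at or near clinical Cmax (else 10 microM), diluted in half-log increments.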", "key": {"[1]": {"conditions": "second compound 0.0316 µM, first compound 0.0316 µM"}, "[2]": {"conditions": "second compound 0.0316 µM, first compound 0.316 µM"}, "[3]": {"conditions": "second compound 0.1 µM, first compound 0.0316 µM"}, "[4]": {"conditions": "second compound 0.1 µM, first compound 0.316 µM"}, "[5]": {"conditions": "second compound 0.316 µM, first compound 0.0316 µM"}, "[6]": {"conditions": "second compound 0.316 µM, first compound 0.316 µM"}, "[7]": {"conditions": "second compound 1 µM, first compound 0.0316 µM"}, "[8]": {"conditions": "second compound 1 µM, first compound 0.316 µM"}, "[9]": {"conditions": "second compound 3.16 µM, first compound 0.0316 µM"}, "[10]": {"conditions": "second compound 3.16 µM, first compound 0.316 µM"}, "[11]": {"conditions": "second compound 10 µM, first compound 0.0316 µM"}, "[12]": {"conditions": "second compound 10 µM, first compound 0.316 µM"}}}
{"smiles": "Cc1cccc(N(C)C(=O)C2C(O)CCN2c2nc(C)cc(C(F)(F)F)c2C#N)c1", "note": "(centres undefined) + Cc1cnc(CNC(=O)c2c(=O)c3ccc(N4CCCN(C)CC4)nc3n3c2sc2ccccc23)cn1", "values": [{"measurement": "IC50", "setting": "second compound 0.0316 µM", "value": "> 10000", "unit": "nM"}, {"measurement": "IC50", "setting": "second compound 0.1 µM", "value": "< 31.6", "unit": "nM"}, {"measurement": "IC50", "setting": "second compound 0.316 µM", "value": "< 31.6", "unit": "nM"}, {"measurement": "IC50", "setting": "second compound 1 µM", "value": "< 31.6", "unit": "nM"}, {"measurement": "IC50", "setting": "second compound 3.16 µM", "value": "< 31.6", "unit": "nM"}, {"measurement": "IC50", "setting": "second compound 10 µM", "value": "< 31.6", "unit": "nM"}, {"measurement": "viability, T/C", "setting": "[1]", "value": 111, "unit": "%"}, {"measurement": "viability, T/C", "setting": "second compound 0.0316 µM, first compound 0.1 µM", "value": 102, "unit": "%"}, {"measurement": "viability, T/C", "setting": "[2]", "value": 103, "unit": "%"}, {"measurement": "viability, T/C", "setting": "second compound 0.0316 µM, first compound 1 µM", "value": 102, "unit": "%"}, {"measurement": "viability, T/C", "setting": "second compound 0.0316 µM, first compound 3.16 µM", "value": 110, "unit": "%"}, {"measurement": "viability, T/C", "setting": "second compound 0.0316 µM, first compound 10 µM", "value": 106, "unit": "%"}, {"measurement": "viability, T/C", "setting": "[3]", "value": 40.1, "unit": "%"}, {"measurement": "viability, T/C", "setting": "second compound 0.1 µM, first compound 0.1 µM", "value": 30.9, "unit": "%"}, {"measurement": "viability, T/C", "setting": "[4]", "value": 36.3, "unit": "%"}, {"measurement": "viability, T/C", "setting": "second compound 0.1 µM, first compound 1 µM", "value": 34.9, "unit": "%"}, {"measurement": "viability, T/C", "setting": "second compound 0.1 µM, first compound 3.16 µM", "value": 36.2, "unit": "%"}, {"measurement": "viability, T/C", "setting": "second compound 0.1 µM, first compound 10 µM", "value": 40.1, "unit": "%"}, {"measurement": "viability, T/C", "setting": "[5]", "value": 12.1, "unit": "%"}, {"measurement": "viability, T/C", "setting": "second compound 0.316 µM, first compound 0.1 µM", "value": 11.4, "unit": "%"}, {"measurement": "viability, T/C", "setting": "[6]", "value": 10.2, "unit": "%"}, {"measurement": "viability, T/C", "setting": "second compound 0.316 µM, first compound 1 µM", "value": 13.8, "unit": "%"}, {"measurement": "viability, T/C", "setting": "second compound 0.316 µM, first compound 3.16 µM", "value": 12.7, "unit": "%"}, {"measurement": "viability, T/C", "setting": "second compound 0.316 µM, first compound 10 µM", "value": 13.3, "unit": "%"}, {"measurement": "viability, T/C", "setting": "[7]", "value": 6.47, "unit": "%"}, {"measurement": "viability, T/C", "setting": "second compound 1 µM, first compound 0.1 µM", "value": 6.97, "unit": "%"}, {"measurement": "viability, T/C", "setting": "[8]", "value": 7.01, "unit": "%"}, {"measurement": "viability, T/C", "setting": "second compound 1 µM, first compound 1 µM", "value": 6.54, "unit": "%"}, {"measurement": "viability, T/C", "setting": "second compound 1 µM, first compound 3.16 µM", "value": 6.3, "unit": "%"}, {"measurement": "viability, T/C", "setting": "second compound 1 µM, first compound 10 µM", "value": 7.05, "unit": "%"}, {"measurement": "viability, T/C", "setting": "[9]", "value": 5.3, "unit": "%"}, {"measurement": "viability, T/C", "setting": "second compound 3.16 µM, first compound 0.1 µM", "value": 4.93, "unit": "%"}, {"measurement": "viability, T/C", "setting": "[10]", "value": 4.77, "unit": "%"}, {"measurement": "viability, T/C", "setting": "second compound 3.16 µM, first compound 1 µM", "value": 5.55, "unit": "%"}, {"measurement": "viability, T/C", "setting": "second compound 3.16 µM, first compound 3.16 µM", "value": 5.79, "unit": "%"}, {"measurement": "viability, T/C", "setting": "second compound 3.16 µM, first compound 10 µM", "value": 5.35, "unit": "%"}, {"measurement": "viability, T/C", "setting": "[11]", "value": 0.13, "unit": "%"}, {"measurement": "viability, T/C", "setting": "second compound 10 µM, first compound 0.1 µM", "value": 0.18, "unit": "%"}, {"measurement": "viability, T/C", "setting": "[12]", "value": 0.17, "unit": "%"}, {"measurement": "viability, T/C", "setting": "second compound 10 µM, first compound 1 µM", "value": 0.17, "unit": "%"}, {"measurement": "viability, T/C", "setting": "second compound 10 µM, first compound 3.16 µM", "value": 0.51, "unit": "%"}, {"measurement": "viability, T/C", "setting": "second compound 10 µM, first compound 10 µM", "value": 0.38, "unit": "%"}]}
{"smiles": "Cn1ncnc1[C@H]1c2n[nH]c(=O)c3cc(F)cc(c23)N[C@@H]1c1ccc(F)cc1", "note": "+ Cc1cnc(CNC(=O)c2c(=O)c3ccc(N4CCCN(C)CC4)nc3n3c2sc2ccccc23)cn1", "values": [{"measurement": "IC50", "setting": "second compound 0.0316 µM", "value": 19.9, "unit": "nM"}, {"measurement": "IC50", "setting": "second compound 0.1 µM", "value": "< 0.999", "unit": "nM"}, {"measurement": "IC50", "setting": "second compound 0.316 µM", "value": "< 0.999", "unit": "nM"}, {"measurement": "IC50", "setting": "second compound 1 µM", "value": "< 0.999", "unit": "nM"}, {"measurement": "IC50", "setting": "second compound 3.16 µM", "value": "< 0.999", "unit": "nM"}, {"measurement": "IC50", "setting": "second compound 10 µM", "value": "< 0.999", "unit": "nM"}, {"measurement": "viability, T/C", "setting": "second compound 0.0316 µM, first compound 0.000999 µM", "value": 110, "unit": "%"}, {"measurement": "viability, T/C", "setting": "second compound 0.0316 µM, first compound 0.00316 µM", "value": 98.6, "unit": "%"}, {"measurement": "viability, T/C", "setting": "second compound 0.0316 µM, first compound 0.00999 µM", "value": 85.6, "unit": "%"}, {"measurement": "viability, T/C", "setting": "[1]", "value": 25.9, "unit": "%"}, {"measurement": "viability, T/C", "setting": "second compound 0.0316 µM, first compound 0.0999 µM", "value": 12.9, "unit": "%"}, {"measurement": "viability, T/C", "setting": "[2]", "value": 7.23, "unit": "%"}, {"measurement": "viability, T/C", "setting": "second compound 0.1 µM, first compound 0.000999 µM", "value": 42.7, "unit": "%"}, {"measurement": "viability, T/C", "setting": "second compound 0.1 µM, first compound 0.00316 µM", "value": 25.4, "unit": "%"}, {"measurement": "viability, T/C", "setting": "second compound 0.1 µM, first compound 0.00999 µM", "value": 17.3, "unit": "%"}, {"measurement": "viability, T/C", "setting": "[3]", "value": 12.5, "unit": "%"}, {"measurement": "viability, T/C", "setting": "second compound 0.1 µM, first compound 0.0999 µM", "value": 5.67, "unit": "%"}, {"measurement": "viability, T/C", "setting": "[4]", "value": 3.67, "unit": "%"}, {"measurement": "viability, T/C", "setting": "second compound 0.316 µM, first compound 0.000999 µM", "value": 13.8, "unit": "%"}, {"measurement": "viability, T/C", "setting": "second compound 0.316 µM, first compound 0.00316 µM", "value": 10, "unit": "%"}, {"measurement": "viability, T/C", "setting": "second compound 0.316 µM, first compound 0.00999 µM", "value": 7.01, "unit": "%"}, {"measurement": "viability, T/C", "setting": "[5]", "value": 6.26, "unit": "%"}, {"measurement": "viability, T/C", "setting": "second compound 0.316 µM, first compound 0.0999 µM", "value": 4.34, "unit": "%"}, {"measurement": "viability, T/C", "setting": "[6]", "value": 2.5, "unit": "%"}, {"measurement": "viability, T/C", "setting": "second compound 1 µM, first compound 0.000999 µM", "value": 5.61, "unit": "%"}, {"measurement": "viability, T/C", "setting": "second compound 1 µM, first compound 0.00316 µM", "value": 5.81, "unit": "%"}, {"measurement": "viability, T/C", "setting": "second compound 1 µM, first compound 0.00999 µM", "value": 4.63, "unit": "%"}, {"measurement": "viability, T/C", "setting": "[7]", "value": 3.57, "unit": "%"}, {"measurement": "viability, T/C", "setting": "second compound 1 µM, first compound 0.0999 µM", "value": 2.89, "unit": "%"}, {"measurement": "viability, T/C", "setting": "[8]", "value": 1.85, "unit": "%"}, {"measurement": "viability, T/C", "setting": "second compound 3.16 µM, first compound 0.000999 µM", "value": 4.32, "unit": "%"}, {"measurement": "viability, T/C", "setting": "second compound 3.16 µM, first compound 0.00316 µM", "value": 4.8, "unit": "%"}, {"measurement": "viability, T/C", "setting": "second compound 3.16 µM, first compound 0.00999 µM", "value": 3.43, "unit": "%"}, {"measurement": "viability, T/C", "setting": "[9]", "value": 2.17, "unit": "%"}, {"measurement": "viability, T/C", "setting": "second compound 3.16 µM, first compound 0.0999 µM", "value": 0.89, "unit": "%"}, {"measurement": "viability, T/C", "setting": "[10]", "value": 0.51, "unit": "%"}, {"measurement": "viability, T/C", "setting": "second compound 10 µM, first compound 0.000999 µM", "value": 0.1, "unit": "%"}, {"measurement": "viability, T/C", "setting": "second compound 10 µM, first compound 0.00316 µM", "value": 0.15, "unit": "%"}, {"measurement": "viability, T/C", "setting": "second compound 10 µM, first compound 0.00999 µM", "value": 0.12, "unit": "%"}, {"measurement": "viability, T/C", "setting": "[11]", "value": 0.13, "unit": "%"}, {"measurement": "viability, T/C", "setting": "second compound 10 µM, first compound 0.0999 µM", "value": 0.66, "unit": "%"}, {"measurement": "viability, T/C", "setting": "[12]", "value": 0.13, "unit": "%"}]}
